The subject of one series is L02. Put plainly: (§1) Anti-proliferative activity against human L02 cells after 48 hrs by MTT assay. In kind it is ADME, cell-based. The arrangement: inhibition at 48 h: concentration or dose not given beside the values. The settings on record: Homo sapiens, L02, 48 h. A general note: Formazan colour is commonly taken as a measure of viable cells.
Series [1] has as its system AGS. Put plainly: Anti-proliferative activity against human AGS cells after 48 hrs by MTT assay. Format: functional, cell-based.
For series [2], the system named is AGS. Put plainly: Growth inhibition of human AGS cells at 100 uM after 48 hrs by MTT assay relative to control. The settings on record: read-out: GI. Format: functional.
The nature of series [3]: Selectivity index, ratio of IC50 for human L02 cells to IC50 for human AGS cells. In kind it is functional.
A short description of series [4]: as §1. Format: ADME, cell-based. More on the design: inhibition at 48 h: concentration or dose not given beside the values. As to conditions: human, L02 cells.
The test system of series [5] is AGS. Kind of series: Induction of apoptosis in human AGS cells assessed as late apoptotic cells at 10 uM after 48 hrs by Annexin-V-FITC/propidium iodide staining based flow cytometry (reference value: 0.3%). In kind it is functional. (In flow cytometry, cells or beads pass a laser one at a time.)
Series [6] deals with AGS. Put plainly: Cell cycle arrest in human AGS cells assessed as accumulation at G2 phase at 10 uM after 48 hrs by propidium iodide staining based flow cytometry (reference value: 16.41%). Format: functional.
Series [7] relates to AGS. Put plainly: Cell cycle arrest in human AGS cells assessed as accumulation at G1 phase at 0.1 uM after 48 hrs by propidium iodide staining based flow cytometry (reference value: 77.02%). In kind it is functional.
Series [8] has as its system AGS. Put plainly: Induction of apoptosis in human AGS cells assessed as necrotic cells at 0.1 uM after 48 hrs by Annexin-V-FITC/propidium iodide staining based flow cytometry (reference value: 2%). Format: functional.
The test system of series [9] is AGS. Kind of series: Induction of apoptosis in human AGS cells assessed as viable cells at 0.1 uM after 48 hrs by Annexin-V-FITC/propidium iodide staining based flow cytometry (reference value: 97.5%). As to conditions: read-out: Activity. Format: functional.
Series [10] concerns AGS. Put plainly: Induction of apoptosis in human AGS cells assessed as late apoptotic cells at 0.1 uM after 48 hrs by Annexin-V-FITC/propidium iodide staining based flow cytometry (reference value: 0.3%). In kind it is functional.
Series [11] has as its system AGS. Kind of series: Cell cycle arrest in human AGS cells assessed as accumulation at G2 phase at 0.1 uM after 48 hrs by propidium iodide staining based flow cytometry (reference value: 16.41%). In kind it is functional.
The test system of series [12] is AGS. Kind of series: Cell cycle arrest in human AGS cells assessed as accumulation at S phase at 0.1 uM after 48 hrs by propidium iodide staining based flow cytometry (reference value: 6.57%). Format: functional.
Series [13] deals with AGS. Put plainly: Induction of apoptosis in human AGS cells assessed as early apoptotic cells at 10 uM after 48 hrs by Annexin-V-FITC/propidium iodide staining based flow cytometry (reference value: 0.2%). Format: functional.
The test system of series [14] is AGS. Put plainly: Cell cycle arrest in human AGS cells assessed as accumulation at G1 phase at 10 uM after 48 hrs by propidium iodide staining based flow cytometry (reference value: 77.02%). Format: functional.
For series [15], the system named is AGS. Kind of series: Induction of apoptosis in human AGS cells assessed as early apoptotic cells at 0.1 uM after 48 hrs by Annexin-V-FITC/propidium iodide staining based flow cytometry (reference value: 0.2%). In kind it is functional.
For series [16], the system named is AGS. Kind of series: Induction of apoptosis in human AGS cells assessed as necrotic cells at 10 uM after 48 hrs by Annexin-V-FITC/propidium iodide staining based flow cytometry (reference value: 2%). Format: functional.
Series [17] concerns AGS. Kind of series: Cell cycle arrest in human AGS cells assessed as accumulation at S phase at 10 uM after 48 hrs by propidium iodide staining based flow cytometry (reference value: 6.57%). Format: functional.
Series [18] has as its system AGS. Put plainly: Induction of apoptosis in human AGS cells assessed as viable cells at 10 uM after 48 hrs by Annexin-V-FITC/propidium iodide staining based flow cytometry (reference value: 97.5%). As to conditions: read-out: Activity. In kind it is functional.

What is called IC50 is the concentration that gives 50% inhibition. In the case of `O=c1ccc2cc3ccoc3c(OCc3cn(-c4ccc(Cl)cc4)nn3)c2o1`, the IC50 with L02 was greater than 100 µM; with AGS [1], 8.2 µM. In addition, the inhibition of growth at 100 µM in the series with AGS [2] amounted to 89.6%. In addition, the “Ratio IC50” value in series [3] is greater than 12.2.

Consider `O=c1ccc2cc3ccoc3c(OCc3cn(-c4ccccc4F)nn3)c2o1`, for which, in the series on AGS [2], the inhibition of growth at 100 µM stood at 39.6%.

As a reminder, the inhibition is the relative decrease from the control value, in per cent. For `O=c1ccc2cc3ccoc3c(OCc3nncn3-c3ccc(F)cc3)c2o1`, the 50% inhibitory concentration (IC50) amounted to 94.2 µM with L02 and 13.1 µM with AGS [1]. In [4], this molecule yielded an inhibition at 48 h of 53.1%. Moreover, the inhibition of growth at 100 µM in the series on AGS [2] worked out at 72.3%. For the same molecule, the “Ratio IC50” value in series [3] came out at 7.2.

With `O=c1ccc2cc3ccoc3c(OCc3cn(Cc4ccccc4Cl)nn3)c2o1`, the inhibition of growth at 100 µM in the series on AGS [2] came out at 33.2%.

In the case of `Cc1ccc(-n2cc(COc3c4occc4cc4ccc(=O)oc34)nn2)cc1`, the IC50 in the series with L02 was greater than 100 µM; in the series on AGS [1], 33.2 µM. Further, the inhibition of growth at 100 µM in the series on AGS [2] came to 65.6%. In addition, in [3], the “Ratio IC50” value is reported as greater than 3.

Regarding `Cc1ccc(Cn2cc(COc3c4occc4cc4ccc(=O)oc34)nn2)cc1`, in the series on AGS [2], the inhibition of growth at 100 µM was found to be 47%.

With `COc1ccc(-n2cnnc2COc2c3occc3cc3ccc(=O)oc23)cc1`, the inhibition of growth at 100 µM with AGS [2] worked out at 34.4%.

As to `O=c1ccc2cc3ccoc3c(OCc3nncn3-c3ccc(Cl)cc3)c2o1`, the inhibition of growth at 100 µM in the series on AGS [2] stood at 40.3%.

Turning to `O=c1ccc2cc3ccoc3c(OCc3nncn3-c3ccccc3)c2o1`, in the series on AGS [2], the inhibition of growth at 100 µM amounted to 40.1%.

With `O=c1ccc2cc3ccoc3c(OCc3cn(-c4ccc(F)cc4)nn3)c2o1`, the 50% inhibitory concentration (IC50) in the series with L02 was greater than 100 µM; in the series with AGS [1], 10.7 µM. Besides, the inhibition of growth at 100 µM with AGS [2] came out at 70.4%. Also, the “Ratio IC50” value in series [3] is greater than 9.3.

Consider `Cc1ccc(-n2cnnc2COc2c3occc3cc3ccc(=O)oc23)cc1`, for which the inhibition of growth at 100 µM in the series with AGS [2] was 39.4%.

On to `O=c1ccc2cc3ccoc3c(OCc3cn(Cc4ccc(Cl)cc4Cl)nn3)c2o1`, for which the concentration for half-maximal inhibition (IC50) in the series with L02 came to 90.2 µM; with AGS [1] it was 26.5 µM. Further, in the series with AGS [2], the inhibition of growth at 100 µM came to 67.7%. Further, in [3], the “Ratio IC50” value is recorded as 3.4.

Turning to `O=c1ccc2cc3ccoc3c(OCc3cn(Cc4ccccc4F)nn3)c2o1`, the inhibition of growth at 100 µM in the series with AGS [2] is 25.5%.

Take `O=c1ccc2cc3ccoc3c(OCc3nncn3-c3ccc(C(F)(F)F)cc3)c2o1`: the half-inhibitory concentration (IC50) was greater than 100 µM with L02 and 41 µM with AGS [1]. Besides, the inhibition of growth at 100 µM in the series on AGS [2] was 52.9%. The “Ratio IC50” value in series [3] was greater than 2.4.

In the case of `O=c1ccc2cc3ccoc3c(OCc3cn(Cc4cccc(C(F)(F)F)c4)nn3)c2o1`, the 50% inhibitory concentration (IC50) in the series on L02 and with AGS [1] was greater than 100 µM in each case. Moreover, in the series on AGS [2], the inhibition of growth at 100 µM came out at 51.7%.

Consider `O=c1ccc2cc3ccoc3c(OCc3cn(Cc4ccc(F)cc4)nn3)c2o1`, for which the inhibition of growth at 100 µM in the series with AGS [2] turned out to be 43.1%.

Regarding `O=c1ccc2cc3ccoc3c(OCc3cn(Cc4cccc(Cl)c4)nn3)c2o1`, the inhibition of growth at 100 µM with AGS [2] was 49.5%.

With `O=c1ccc2cc3ccoc3c(OCc3nncn3-c3ccccc3Cl)c2o1`, the inhibition of growth at 100 µM in the series on AGS [2] came out at 45.2%.

In the case of `O=c1ccc2cc3ccoc3c(OCc3cn(-c4ccc(C(F)(F)F)cc4)nn3)c2o1`, the Activity in the series with AGS [5] is given as 1%; in the series on AGS [6], 38.17%; in the series on AGS [7], 61.1%; in the series with AGS [8], 1.8%; with AGS [10], 0.8%; in the series on AGS [11] it was 31.73%. The Activity came out at 7.17% in the series on AGS [12]; 0.9% in the series with AGS [13]; 49.76% with AGS [14]; 0.3% in the series with AGS [15]; 1.7% with AGS [16]; 12.08% in the series on AGS [17]. The concentration for half-maximal inhibition (IC50) with L02 was greater than 100 µM; with AGS [1], 7.5 µM. The molecule also had an inhibition at 48 h in series [4] of 33.9%. Also, the viability at 0.1 µM in the series with AGS [9] came to 96.2%. Further, in the series on AGS [2], the inhibition of growth at 100 µM was determined as 92.4%. Besides, in [3], the “Ratio IC50” value was greater than 13.3. In addition, in the series on AGS [18], the viability at 10 µM came out at 96.4%.

Take `Cc1nncn1-c1ccc(F)cc1`: the half-maximal inhibitory concentration (IC50) in the series with L02 and with AGS [1] was greater than 100 µM in each case. Besides, the inhibition at 48 h in series [4] came out at 16.9%. Moreover, the inhibition of growth at 100 µM with AGS [2] was found to be 13.9%.

As to `O=c1ccc2cc3ccoc3c(OCc3cn(-c4ccccc4)nn3)c2o1`, the inhibition of growth at 100 µM in the series on AGS [2] was determined as 46.4%.

On to `COc1ccc(-n2cc(COc3c4occc4cc4ccc(=O)oc34)nn2)cc1`, for which the 50% inhibitory concentration (IC50) is greater than 100 µM in the series with L02 and 94.6 µM in the series with AGS [1]. In the series on AGS [2], the inhibition of growth at 100 µM stood at 53.2%. The “Ratio IC50” value in [3] was greater than 1.1.

In the case of `O=c1ccc2cc3ccoc3c(OCc3cn(Cc4ccccc4)nn3)c2o1`, the inhibition of growth at 100 µM in the series on AGS [2] stood at 24.4%.

Regarding `O=c1ccc2cc3ccoc3c(OCc3cn(Cc4c(Cl)cccc4Cl)nn3)c2o1`, the inhibition of growth at 100 µM in the series with AGS [2] was determined as 32.5%.

As for `O=c1ccc2cc3ccoc3c(OCc3cn(Cc4cccc(F)c4)nn3)c2o1`, the inhibition of growth at 100 µM with AGS [2] is 30.1%.

For `O=c1ccc2cc3ccoc3c(OCc3cn(Cc4ccc(Cl)cc4)nn3)c2o1`, the half-maximal inhibitory concentration (IC50) with L02 is greater than 100 µM; with AGS [1] it was 93.2 µM. In the series on AGS [2], the inhibition of growth at 100 µM stood at 53.2%. The “Ratio IC50” value in series [3] is reported as greater than 1.1.

In the case of `Cc1cn(-c2ccc(C(F)(F)F)cc2)nn1`, the IC50 with L02 and with AGS [1] was greater than 100 µM each time. Besides, the inhibition at 48 h in series [4] came to 9.4%. The inhibition of growth at 100 µM with AGS [2] came to 44.5%.

As for `O=c1[nH]cc(F)c(=O)[nH]1` [FLUOROURACIL], in the series with AGS [1], the midpoint of inhibition, the IC50, lay at 29.6 µM. In addition, the inhibition of growth at 100 µM in the series on AGS [2] was 74.9%.

Turning to `COc1c2occc2cc2ccc(=O)oc12` [METHOXSALEN], the IC50 in the series on L02 and with AGS [1] was greater than 100 µM in each case. This molecule yielded an inhibition at 48 h in series [4] of 3.3%. The inhibition of growth at 100 µM in the series with AGS [2] turned out to be 35.3%.

These data come from ChEMBL document CHEMBL4043250 (Bioorg Med Chem Lett, 2017).
